This is an account of results in ChEMBL document CHEMBL1201862, “PubChem BioAssay data set” (2004).

Usually GI50 stands for the concentration giving 50% growth inhibition.

Among the test systems are A549; UACC-62; HL-60; MDA-N; EKVX; KM12; HOP-92; NCI-H23; OVCAR-3; NCI/ADR-RES; HCT-116; COLO 205; OVCAR-5; HT-29; TK-10; OVCAR-8; 786-0; OVCAR-4; DU-145; SK-OV-3.
Holding throughout (experiment): DTP human tumour cell line panel, 48 h

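The compound was tested at five concentrations on cells cultured in 96-well plates, with a 48-hour exposure period. GI50 marks 50% less growth.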 Active and inactive are the calls of the source. Cut-off read from the data, not from the text of the source: active = GI50 up to about 1.1 µM and inactive = higher.

Regarding `COC(=O)C1(CCCCCBr)CCCCCCCCCCC1=O` (stereo not given), the GI50 in the assay with A549 is 31.3 µM (inactive); in the assay with UACC-62, 79.6 µM (inactive); with HL-60, 30 µM (inactive); in the assay with MDA-N it was 29.2 µM (inactive); with EKVX, 78.9 µM (inactive); in the assay on KM12, 46.5 µM (inactive). The GI50 in the assay with HOP-92 is 58.7 µM (inactive); in the assay with NCI-H23, 45.9 µM (inactive); in the assay with OVCAR-3, 28.4 µM (inactive); with NCI/ADR-RES, 37.2 µM (inactive); with HCT-116, 26.4 µM (inactive); in the assay with COLO 205 it was 31.8 µM (inactive). The GI50 in the assay on OVCAR-5 is 37.3 µM (inactive); in the assay with HT-29 it was 42.2 µM (inactive); in the assay on TK-10, > 100 µM (inactive); in the assay with OVCAR-8 it was 54.2 µM (inactive); with 786-0 it was 30.3 µM (inactive); in the assay with OVCAR-4 it was 19.8 µM (inactive). In addition, the figures for the GI50 in the assay on DU-145 and in the assay with SK-OV-3 were 88.5 µM (inactive) and > 100 µM (inactive), respectively.
Regarding `O=Cc1c2ccccc2n2ccc3c4ccccc4[nH]c3c12`, the GI50 in the assay with A549 is > 10 µM (inactive); in the assay on UACC-62, > 10 µM (inactive); in the assay on HL-60 it was > 10 µM (inactive); in the assay with MDA-N it was > 10 µM (inactive); in the assay on EKVX, 3.57 µM (inactive); in the assay with KM12, 0.344 µM (active). Besides, the GI50 in the assay on HOP-92, in the assay on NCI-H23, with OVCAR-3, in the assay with NCI/ADR-RES, in the assay on HCT-116 and in the assay on COLO 205 was > 10 µM (inactive) throughout. Moreover, the GI50 in the assay with OVCAR-5, with HT-29, in the assay with TK-10, in the assay on OVCAR-8, in the assay with 786-0 and in the assay with OVCAR-4 was > 10 µM (inactive) each time. Also, the GI50 in the assay on DU-145 and with SK-OV-3 was > 10 µM (inactive) in each case.
On to `CCC1(C)N=c2c(ncn2N=C(C)C)=C(C(N)=O)N1` (stereo not given), for which the GI50 with A549 is > 100 µM (inactive); in the assay with UACC-62 it was > 100 µM (inactive); in the assay on HL-60 it was > 100 µM (inactive); with MDA-N it was > 100 µM (inactive); in the assay with EKVX, > 100 µM (inactive); in the assay with KM12, 22.6 µM (inactive). For the same molecule, the GI50 in the assay on HOP-92 was 0.426 µM (active); in the assay with NCI-H23, > 100 µM (inactive); in the assay on OVCAR-3, > 100 µM (inactive); in the assay with NCI/ADR-RES, > 100 µM (inactive); in the assay with HCT-116, > 100 µM (inactive); in the assay on COLO 205, > 100 µM (inactive). The GI50 in the assay with OVCAR-5, in the assay with HT-29, with TK-10, in the assay with OVCAR-8, with 786-0 and with OVCAR-4 was > 100 µM (inactive) in each case. Moreover, the GI50 in the assay with DU-145 and in the assay with SK-OV-3 was > 100 µM (inactive) in each case.
For `CC(C)(C)OC(=O)CCC1NC(=O)[C@@H]2Cc3c([nH]c4ccccc34)C(c3ccccc3)N2C1=O` (stereo not given in full), the GI50 is 31.8 µM (inactive) with A549; 17.7 µM (inactive) with UACC-62; 21.4 µM (inactive) in the assay with HL-60; 19.8 µM (inactive) in the assay on MDA-N; 36.6 µM (inactive) with EKVX; 24.9 µM (inactive) in the assay with KM12. Besides, the GI50 in the assay with HOP-92 was 27.9 µM (inactive); in the assay on NCI-H23 it was 29.1 µM (inactive); in the assay with OVCAR-3, 21.6 µM (inactive); with NCI/ADR-RES it was 35.5 µM (inactive); in the assay with HCT-116, 19.4 µM (inactive); in the assay with COLO 205, 20.9 µM (inactive). For the same molecule, the GI50 was 25.1 µM (inactive) with OVCAR-5; 22.8 µM (inactive) in the assay with HT-29; 33.7 µM (inactive) in the assay with TK-10; 37.2 µM (inactive) in the assay on OVCAR-8; 30.6 µM (inactive) in the assay with 786-0; 32.7 µM (inactive) in the assay on OVCAR-4. For the same molecule, the GI50 in the assay on DU-145 is 43.7 µM (inactive); in the assay with SK-OV-3 it was 29.6 µM (inactive).
Take `C=C(Cl)C(Cl)(CBr)CCC(Cl)C(C)C` (stereo not given): the GI50 in the assay with A549 was 8.53 µM (inactive); in the assay on UACC-62, 3.08 µM (inactive); with HL-60, 0.226 µM (active); in the assay on MDA-N, 3.72 µM (inactive); in the assay with EKVX it was 14.7 µM (inactive); in the assay with KM12, 1.23 µM (inactive). Moreover, the GI50 in the assay with HOP-92 was 1.6 µM (inactive); in the assay on NCI-H23, 13.7 µM (inactive); in the assay with OVCAR-3, 1.32 µM (inactive); in the assay with NCI/ADR-RES, 8.55 µM (inactive); in the assay with HCT-116 it was 1.37 µM (inactive); with COLO 205, 4.79 µM (inactive). The GI50 in the assay on OVCAR-5 was 10.8 µM (inactive); in the assay on HT-29, 0.222 µM (active); in the assay on TK-10, 1.33 µM (inactive); in the assay on OVCAR-8, 3.19 µM (inactive); in the assay with 786-0, 0.337 µM (active); in the assay with OVCAR-4, 8.17 µM (inactive). The GI50 in the assay on DU-145 was 1.37 µM (inactive); with SK-OV-3 it was 26.4 µM (inactive).
In the case of `O=C1OC(c2ccccc2)=N/C1=C\c1cn[nH]n1`, the GI50 with A549, in the assay with UACC-62, with HL-60, with MDA-N, with EKVX and with KM12 was > 100 µM (inactive) throughout. The GI50 in the assay on HOP-92, in the assay with NCI-H23, in the assay with OVCAR-3, in the assay on NCI/ADR-RES, with HCT-116 and with COLO 205 was > 100 µM (inactive) throughout. Further, the GI50 in the assay with OVCAR-5, in the assay on HT-29, in the assay with TK-10, in the assay with OVCAR-8, in the assay with 786-0 and in the assay on OVCAR-4 was > 100 µM (inactive) in each case. The GI50 in the assay on DU-145 and in the assay on SK-OV-3 was > 100 µM (inactive) throughout.
For `O=C(CSc1nc2ccc([N+](=O)[O-])cc2s1)c1ccc2ccccc2c1`, the GI50 in the assay on A549, in the assay with UACC-62, in the assay with HL-60, in the assay on MDA-N, in the assay on EKVX and with KM12 was > 100 µM (inactive) in each case. Besides, the GI50 was 57.7 µM (inactive) in the assay with HOP-92; 33 µM (inactive) with NCI-H23; > 100 µM (inactive) in the assay on OVCAR-3; > 100 µM (inactive) in the assay on NCI/ADR-RES; > 100 µM (inactive) with HCT-116; > 100 µM (inactive) in the assay on COLO 205. The GI50 in the assay with OVCAR-5 was > 100 µM (inactive); in the assay on HT-29 it was > 100 µM (inactive); in the assay on TK-10, 54.2 µM (inactive); in the assay with OVCAR-8 it was 37.4 µM (inactive); with 786-0 it was 34 µM (inactive); in the assay on OVCAR-4 it was 41.2 µM (inactive). Besides, the GI50 in the assay on DU-145 and in the assay with SK-OV-3 was > 100 µM (inactive) in each case.
